Here are results for 6 compounds from ChEMBL document CHEMBL1155745, “Constituents of the root bark of Severinia buxifolia collected in Hainan” (2001).

For one assay, the system named is Hep 3B2. In words: (§1) Cytotoxicity against human Hep3B cells. It is filed as functional.
The next assay concerns KB. In words: Cytotoxicity against human KB cells. It is filed as functional. To be noted: for EC50: read-out: ED50 (the source's name).
In another assay the test system is COLO 205. In words: Cytotoxicity against human COLO205 cells. It is filed as functional. To be noted: for EC50: read-out: ED50 (the source's name).
Assay [1] is described as follows: as §1. It is filed as functional, Hep 3B2. The conditions noted are these: read-out: ED50 (the source's name).

In brackets after ≈: the same amount, converted by molar mass. Activity calls are given as the source filed them. The calls are words filed in the database; no cut-off is given here.

Take `CC(C)=CCc1c2c(c(O)c3c(=O)c4ccccc4[nH]c13)C=CC(C)(C)O2`: the ED50 result with Hep 3B2 and in the assay with KB was “inactive” in each case. Moreover, the EC50 in the assay with COLO 205 amounted to 0.58 µg/mL (≈ 1.6 µM).
Regarding `COc1cc(O)c2c(=O)c3cccc(O)c3n(C)c2c1OC` [CITRUSININE-I], the EC50 was 6.6 µg/mL (≈ 21.9 µM) in assay [1], 0.09 µg/mL (≈ 0.299 µM) in the assay with KB and 6.3 µg/mL (≈ 20.9 µM) in the assay with COLO 205.
Regarding `COc1c(/C=C/C(C)C)c(O)c2c(=O)c3cccc(O)c3[nH]c2c1CC=C(C)C`, the ED50 result in the assay with Hep 3B2 and in the assay on KB was “inactive” each time. For the same compound, the EC50 in the assay on COLO 205 is 1.2 µg/mL (≈ 3.05 µM).
Take `COc1c(O)ccc2c(=O)c3c(O)cc(O)c(OC)c3n(C)c12`: the values for the EC50 (in assay [1]; with KB) were 5.3 µg/mL (≈ 16.7 µM) and 0.22 µg/mL (≈ 0.693 µM), respectively. Moreover, in the assay on COLO 205, the ED50 entry is “inactive”.
Turning to `COc1c(O)cc(O)c2c(=O)c3cccc(O)c3n(C)c12` [CITRUSININE-II], the ED50 result in the assay on Hep 3B2 and in the assay with COLO 205 was “inactive” throughout. In addition, the EC50 in the assay with KB was determined as 0.82 µg/mL (≈ 2.85 µM).
Regarding `CC(C)=CCc1c2c(c3[nH]c4ccccc4c(=O)c3c1O)C=CC(C)(C)O2` [SEVERIFOLINE], the ED50 entry in the assay on Hep 3B2 and with COLO 205 was “inactive” throughout. Also, the EC50 in the assay with KB turned out to be 0.09 µg/mL (≈ 0.249 µM).
